In one test the test system is Escherichia coli. The test can be described thus: Enzyme reaction of bacteria on m-TECB based agar media in microtiter plates, read visually by colour. The test is classed as cell-based. The text has this: (§1) Enzyme activity was detected on the m-TEC medium of Dufour et al. (Dufour, A.P., E.R. Strickland and V.J. Cabelli. 1981. Membrane filter method for enumerating Eseherichia coli. Appl. Envion. Microbiol. 41: 1152-1158) prepared with the following modifications: bromocresol purple, bromophenol red and lactose were omitted; the modified m-TEC medium contained (g/1 proteose peptone No. 3, 5.0g; yeast extract 3.0g; glycerol 10.0g; NaCl 7.5g; K2HPO4 3.3g; KH2PO4 1.0g; sodium lauryl sulfate 0.2g; sodium deoxycholate 0.10g and agar 15.0g. The medium was autoclaved for 15 minutes at 121°C. The following chemicals, purchased from the Sigma Chemical Company, St.Louis. Mo., were added separately to the modified m-TEC medium after autoclaving and cooling to 50°C - 60°C: para-nitrophenyl-β- ? -glucuronide 400 mg/l; indoxyl-β- ? -glucoside 250 mg/l. Indoxyl-β- ? -glucuronide, prepared as described in Example 8, was added at 350-400 mg/l. The four agar media used in this study will be referred to as follows: modified m-TEC as m-TECB medium; the formulations of indoxyl-β-D -glucuronide as IGA, para-nitrophenyl-β-D-glucuronide as PNGA, and indoxyl-β-D -glucoside (indican) as IA media.
(§2) In this experiment, four organisms were tested for β- D -glucuronidase and β- D -glucosidase activity: American Type Culture Collection (ATCC) strains Escherichia Coli 35218 and Klebsiella pneumonia 13883; environmental isolates that have been characterized in our laboratory, Escherichia coli 83-17350 and Klebsiella pneumonia PHL.
(§3) A series of m-TECB agar basal media microtiter plates were prepared, using the m-TECB base media described in Example 9, and indoxyl-β- D -glucuronide, p-nitrophenyl-β- D -glucuronide or indoxyl-β-D-glucoside was added to respective plates. Specific bacteria from controlled sources, described above, were applied to the plates and incubated at 45°C for 16 2 hours.

For another test, the system named is Klebsiella pneumonia. The test is described as above. The test is classed as cell-based. The following applies: K. pneumonia.
Description: as §1, §2, §3

Counter-ions that a name gives are not always drawn.

Take `O=C(O)[C@H]1O[C@@H](Oc2c[nH]c3ccccc23)[C@H](O)[C@@H](O)[C@@H]1O` [indoxyl-β- D -glucuronide, Indoxyl-β-D -Glucuronide Sodium Salt]: in the test with Escherichia coli, the “hydrolysis by the glucuronidase activity of E. coli” value is “readily and specifically hydrolysed”. `OC[C@H]1O[C@@H](Oc2c[nH]c3ccccc23)[C@H](O)[C@@H](O)[C@@H]1O` [indican, indoxyl-β-D -glucoside]: the colour / reactivity entry in the test on Escherichia coli (Environmental and ATCC strains of E.coli) is listed as “no reactivity”; in the test with Klebsiella pneumonia it was “blue colour”.

The values are drawn from patent publication EP0284725A2, “Indoxyl-beta-d-glucuronide and method for making” (QUEEN'S UNIVERSITY AT KINGSTON, priority 1987, dated 1988).
